According to patent US20140243418A1, “RASAGILINE FOR PARKINSON'S DISEASE MODIFICATION” (Teva Pharmaceutical Industries, Ltd., priority 2008, published 2014):
“And” between values parts separate entries of the source, which are not always exact repeats. Identical values can stand only once. Like-named read-outs stand apart in the source and are kept apart here.

Test system: Early Stage PD patients
Details: for Primary 1: rate of change in UPDRS, weeks 12-36, 1 mg/day - placebo / Secondary Endpoint: change in total UPDRS from baseline to final visit in phase I, 1 mg/day - placebo: rasagiline 1 mg/day minus placebo; for Primary 1: rate of change in UPDRS, weeks 12-36, 2 mg/day - placebo / Secondary Endpoint: change in total UPDRS from baseline to final visit in phase I, 2 mg/day - placebo: rasagiline 2 mg/day minus placebo
Experimental: 1 mg/day rasagiline during Phase I and Phase II; • Group 2. 2 mg/day rasagiline during Phase I and Phase II; • Group 3. placebo during Phase I followed by 1 mg/day rasagiline during Phase II; and • Group 4. placebo during Phase I followed by 2 mg/day rasagiline during Phase II.
Thus, ‘early-start’ patients receive 72 weeks of treatment with rasagiline (1 or 2 mg once daily) and ‘delayed-start’ patients receive 36 weeks of placebo followed by 36 weeks of rasagiline (1 or 2 mg once daily). […] If subjects in either treatment group required additional anti-parkinsonian medication during the placebo-controlled stage of the trial, they could proceed directly to Phase II. Once in Phase II, no additional anti-PD therapy is permitted. If the patient requires additional medication in this stage they are discontinued from the study.
1 mg/day rasagiline during Phase I and Phase II (1 mg early start) • 2. 2 mg/day rasagiline during Phase I and Phase II (2 mg early start) • 3. placebo during Phase I followed by 1 mg/day rasagiline during Phase II (1 mg delayed start) • 4. placebo during Phase I followed by 2 mg/day rasagiline during Phase II (2 mg delayed start)
If, at any stage during the placebo-controlled phase the investigator determines that a subject needs additional anti-PD therapy, the subject will proceed to Phase II of the study. The investigator, aided by a questionnaire, will give careful consideration to the issue of a subject's need for additional anti-PD therapy. Scheduled in-clinic visits will be conducted at baseline and at weeks 4, 12, 24 and 36. Therefore, altogether there will be 5 scheduled visits during this phase. Unscheduled visits may be conducted at any time to assess a subject's need for additional anti-PD therapy, for safety reasons or for any other reason.
Thus, subjects who receive 1 mg rasagiline during Phase I will continue to receive 1 mg during Phase II, subjects who receive 2 mg rasagiline during Phase I will continue to receive 2 mg during Phase II, and subjects who receive placebo during Phase I will receive either 1 mg or 2 mg rasagiline during Phase II. The study blind will be maintained. No additional anti-PD therapy will be permitted during this phase. This applies to both the subjects who enter Phase II after completing the full 36-week duration of Phase I and to subjects who are switched from Phase I to Phase II because of a need of additional anti-PD therapy. If, the investigator determines that a subject needs additional anti-PD therapy during Phase II, the subject will be prematurely withdrawn from the study. The investigator, aided by a questionnaire, will give careful consideration to the issue of a subject's need for additional anti-PD therapy. Scheduled in-clinic visits will be conducted every 6 weeks. Therefore, altogether there will be 6 visits during this phase—at weeks 42, 48, 54, 60, 66 and 72. Unscheduled visits may be conducted at any time to assess a subject's need for additional anti-PD therapy, for safety reasons or for any other reason.

[1] = Baseline UPDRS > 25.5 (Upper Quartile)
[2] = Baseline UPDRS ≦ 25.5 (Lower 3 Quartiles)
[3] = rasagiline 1 mg/day, Baseline UPDRS > 25.5 (Upper Quartile)
[4] = rasagiline 1 mg/day, Baseline UPDRS ≦ 25.5 (Lower 3 Quartiles)
[5] = rasagiline 1 mg/day, all subjects
[6] = rasagiline 1 mg/day, all subjects, listed as Rasagiline
[7] = rasagiline 2 mg/day delayed-start, Baseline UPDRS > 25.5 (Upper Quartile)
[8] = rasagiline 2 mg/day delayed-start, Baseline UPDRS ≦ 25.5 (Lower 3 Quartiles)
[9] = rasagiline 2 mg/day delayed-start, all subjects
[10] = rasagiline 2 mg/day early-start minus delayed-start, Baseline UPDRS > 25.5 (Upper Quartile)
[11] = rasagiline 2 mg/day early-start minus delayed-start, Baseline UPDRS ≦ 25.5 (Lower 3 Quartiles)
[12] = rasagiline 2 mg/day early-start, Baseline UPDRS > 25.5 (Upper Quartile)
[13] = rasagiline 2 mg/day early-start, Baseline UPDRS ≦ 25.5 (Lower 3 Quartiles)
[14] = rasagiline 2 mg/day early-start, all subjects
[15] = rasagiline 2 mg/day, Baseline UPDRS > 25.5 (Upper Quartile)
[16] = rasagiline 2 mg/day, Baseline UPDRS ≦ 25.5 (Lower 3 Quartiles)
[17] = rasagiline 2 mg/day, all subjects

C#CCN[C@@H]1CCc2ccccc21 [rasagiline]
Primary 1: rate of change in UPDRS, weeks 12-36, 1 mg/day - placebo [1]: −0.11 UPDRS units/wk
Secondary Endpoint: change in total UPDRS from baseline to final visit in phase I, 1 mg/day - placebo [1]: −6.43
Primary 1: rate of change in UPDRS, weeks 12-36, 1 mg/day - placebo [2]: −0.03 UPDRS units/wk
Secondary Endpoint: change in total UPDRS from baseline to final visit in phase I, 1 mg/day - placebo [2]: −2.34
Primary 1: rate of change in UPDRS, weeks 12-36, 1 mg/day - placebo (all subjects): −0.05±0.02 UPDRS units/wk and −0.05 UPDRS units/wk
Secondary Endpoint: change in total UPDRS from baseline to final visit in phase I, 1 mg/day - placebo (all subjects): −3.01±0.43 and −3.01
Primary 1: rate of change in UPDRS, weeks 12-36 [3]: 0.14 UPDRS units/wk
Secondary Endpoint: change in total UPDRS from baseline to final visit in phase I [3]: 0.27
Primary 1: rate of change in UPDRS, weeks 12-36 [4]: 0.08 UPDRS units/wk
Secondary Endpoint: change in total UPDRS from baseline to final visit in phase I [4]: 1.40
Change from baseline to week 72 in Total-UPDRS, early- vs delayed-start, Estimate (rasagiline 1 mg/day, Completers (n = 409), MMRM (week 48-72)): −1.6
Change from baseline to week 72 in Total-UPDRS, early- vs delayed-start, Estimate (rasagiline 1 mg/day, ITT cohort (observed data), MMRM (weeks 12-72)): −1.7
Change from baseline to week 72 in Total-UPDRS, early- vs delayed-start, Estimate (rasagiline 1 mg/day, Imputed - primary study cohort, Imputation by means of the delayed-start group (week 48-72)): −1.2
Change from baseline to week 72 in Total-UPDRS, early- vs delayed-start, Estimate (rasagiline 1 mg/day, Imputed - primary study cohort, Multiple imputation (week 48-72)): −1.8
Change from baseline to week 72 in Total-UPDRS, early- vs delayed-start, Estimate (rasagiline 1 mg/day, Per protocol (n = 405), MMRM (week 48-72)): −1.6
Change from baseline to week 72 in Total-UPDRS, early- vs delayed-start, Estimate (rasagiline 1 mg/day, Primary study cohort (n = 489), MMRM (week 48-72)): −1.7
Change from baseline to week 72 in Total-UPDRS, early- vs delayed-start, Estimate (rasagiline 1 mg/day, Primary study cohort, ANCOVA with LOCF): −1.7
Change from baseline to week 72 in Total-UPDRS, early- vs delayed-start, Estimate (rasagiline 1 mg/day, Primary study cohort, MMRM, average change from baseline across weeks 48-72): −1.6
Primary 1: rate of change in UPDRS, weeks 12-36 [5]: 0.09 UPDRS units/wk
Secondary Endpoint: change in total UPDRS from baseline to final visit in phase I [5]: 1.26
outcome of the primary analysis (three hierarchal endpoints) [5]: met all three primary analysis endpoints
Primary 1: rate of change in UPDRS, weeks 12-36 [6]: 0.09±0.02 UPDRS units/wk
outcome of the primary analysis (three hierarchal endpoints) [6]: met all endpoints
Primary 2: estimated change in total UPDRS from baseline to week 72 [7]: 5.09
Primary 3: rate of change in UPDRS, weeks 48-72 [7]: 0.137 UPDRS units/wk
Primary 2: estimated change in total UPDRS from baseline to week 72 [8]: 2.60
Primary 3: rate if change in UPDRS, weeks 48-72 [8]: 0.05 UPDRS units/wk
Primary 2: estimated change in total UPDRS from baseline to week 72 [9]: 3.11
Primary 3: rate of change in UPDRS, weeks 48-72 [9]: 0.065 UPDRS units/wk
Primary 2: estimated change in total UPDRS from baseline to week 72 (rasagiline 2 mg/day delayed-start, all subjects, listed as Rasagiline): 3.11±0.5
Primary 2: estimated change in total UPDRS from baseline to week 72, early-start-delayed-start [10]: −3.63±1.72 and −3.63
Primary 3: rate of change in UPDRS, weeks 48-72, early-start-delayed start [10]: −0.03 UPDRS units/wk
Primary 2: estimated change in total UPDRS from baseline to week 72, early-start-delayed-start [11]: 1.10
Primary 3: rate if change in UPDRS, weeks 48-72, early-start-delayed start [11]: 0.05 UPDRS units/wk
Primary 2: estimated change in total UPDRS from baseline to week 72, early-start-delayed-start (rasagiline 2 mg/day early-start minus delayed-start, all subjects): 0.36±0.68 and 0.36
Primary 3: rate of change in UPDRS, weeks 48-72, early-start-delayed start (rasagiline 2 mg/day early-start minus delayed-start, all subjects, non-inferiority margin 0.15): 0.03 UPDRS units/wk
Primary 2: estimated change in total UPDRS from baseline to week 72 [12]: 1.46
Primary 3: rate of change in UPDRS, weeks 48-72 [12]: 0.106 UPDRS units/wk
Primary 2: estimated change in total UPDRS from baseline to week 72 [13]: 3.70
Primary 3: rate if change in UPDRS, weeks 48-72 [13]: 0.09 UPDRS units/wk
Primary 2: estimated change in total UPDRS from baseline to week 72 [14]: 3.47
Primary 3: rate of change in UPDRS, weeks 48-72 [14]: 0.094 UPDRS units/wk
Primary 2: estimated change in total UPDRS from baseline to week 72 (rasagiline 2 mg/day early-start, all subjects, listed as Rasagiline): 3.47±0.5
Primary 1: rate of change in UPDRS, weeks 12-36, 2 mg/day - placebo [1]: −0.20 UPDRS units/wk
Secondary Endpoint: change in total UPDRS from baseline to final visit in phase I, 2 mg/day - placebo [1]: −7.13
Primary 1: rate of change in UPDRS, weeks 12-36, 2 mg/day - placebo [2]: −0.03 UPDRS units/wk
Secondary Endpoint: change in total UPDRS from baseline to final visit in phase I, 2 mg/day - placebo [2]: −2.16
Primary 1: rate of change in UPDRS, weeks 12-36, 2 mg/day - placebo (all subjects): −0.07±0.02 UPDRS units/wk and −0.07 UPDRS units/wk
Secondary Endpoint: change in total UPDRS from baseline to final visit in phase I, 2 mg/day - placebo (all subjects): −3.15±0.43 and −3.15
Primary 1: rate of change in UPDRS, weeks 12-36 [15]: 0.05 UPDRS units/wk
Secondary Endpoint: change in total UPDRS from baseline to final visit in phase I [15]: −0.43
Primary 1: rate of change in UPDRS, weeks 12-36 [16]: 0.07 UPDRS units/wk
Secondary Endpoint: change in total UPDRS from baseline to final visit in phase I [16]: 1.58
Primary 1: rate of change in UPDRS, weeks 12-36 [17]: 0.07 UPDRS units/wk
Secondary Endpoint: change in total UPDRS from baseline to final visit in phase I [17]: 1.11
outcome of the primary analysis (three hierarchal endpoints) [17]: did not meet all three endpoints
outcome of the primary analysis (three hierarchal endpoints) (rasagiline 2 mg/day, all subjects, listed as Rasagiline): did not meet all endpoints
